Data as given in patent US7161008B2, “Optically active β-aminoketones, optically active 1,3-amino alcohols and processes for preparing them” (Sanofi - Aventis Deutschland GmbH, priority 2002, dated 2007).

Assay: Syn/anti-isomerization of the Mannich salt via retro-Mannich/Mannich reaction in DMSO-d6 solution at 300 K, 1H NMR monitoring
Assay type: physicochemical
Details: for cis-isomer [%] / trans-isomer [%]: DMSO-d6, 300 K, 1H NMR
Method: Electron-withdrawing substituents in the aldehyde component of formula (IV) reduced the retro-Mannich tendency. The 1H NMR monitoring of the syn/anti-isomerization of a syn-Mannich salt of formula (III) via retro-Mannich reaction at 300 K in DMSO-d6 solution can be seen in Example 28.
Syn/anti-isomerization of the Mannich base mandelate from […] in DMSO-d^6 solution at 300K. Kinetics and equilibrium location of the retro-Mannich/Mannich reactions:
8 mg of the product from Example 27 were dissolved in DMSO-d^6 as rapidly as possible in a ^1H NMR tube at room temperature. The sample was immediately introduced into the NMR instrument (400 MHz, 300.0 K), shimmed rapidly and analyzed. The first spectrum was obtained 3.5 min after the sample dissolution. […] Further spectra of the solution were each obtained at an interval of 3–4 min. […] The variation can be seen from the graphics and the table of the appendix. 69 min after dissolution of the Mannich salt, the NMR monitoring was aborted at a syn/anti ratio of 50:50. A repeat measurement 20.5 hours after dissolution of the Mannich salt indicated a syn/anti ratio of 41.5:58.5. After a total of 44.5 hours, this ratio was unchanged. The thermodynamic equilibrium of the two isomers is thus achieved in less than 20 h and the anti-isomer is preferred in solution. In contrast, the four-component coupling (Example 27) results in the crystallization of virtually pure syn-isomer, apparently owing to lower solubility. Even the spectrum obtained 3.5 min after sample dissolution indicates (in addition to the syn- and anti-isomers of the Mannich salt) the presence of the retro-Mannich products 2-pyridylmethyl phenyl ketone (formula VI; singlet at δ is 4.53 ppm) and tolylaldehyde (or corresponding imine) (formula IV or X, singlets at δ is 2.40 and 9.12 ppm) in small but significant amounts. The best fitting curve between the measurement points of the graph was obtained by 3rd order polynomial formation.

[1] = 3.5 min after sample dissolution
[2] = 6.5 min after sample dissolution
[3] = 10.5 min after sample dissolution
[4] = 13.5 min after sample dissolution
[5] = 17.5 min after sample dissolution
[6] = 20.5 min after sample dissolution
[7] = 24.5 min after sample dissolution
[8] = 27.5 min after sample dissolution
[9] = 31.5 min after sample dissolution
[10] = 34.5 min after sample dissolution
[11] = 37.5 min after sample dissolution
[12] = 41.5 min after sample dissolution
[13] = 44.5 min after sample dissolution
[14] = 48.5 min after sample dissolution
[15] = 51.5 min after sample dissolution
[16] = 55.5 min after sample dissolution
[17] = 58.5 min after sample dissolution
[18] = 61.5 min after sample dissolution
[19] = 65.5 min after sample dissolution
[20] = 68.5 min after sample dissolution
[21] = 1230 min after sample dissolution
[22] = 2670 min after sample dissolution

cis-isomer [%] [1]: 95.1% | trans-isomer [%] [1]: 4.9% | cis-isomer [%] [2]: 92.5% | trans-isomer [%] [2]: 7.5% | cis-isomer [%] [3]: 89.0% | trans-isomer [%] [3]: 11.0% | cis-isomer [%] [4]: 85.0% | trans-isomer [%] [4]: 15.0% | cis-isomer [%] [5]: 81.7% | trans-isomer [%] [5]: 18.3% | cis-isomer [%] [6]: 77.3% | trans-isomer [%] [6]: 22.7% | cis-isomer [%] [7]: 76.8% | trans-isomer [%] [7]: 23.2% | cis-isomer [%] [8]: 71.8% | trans-isomer [%] [8]: 28.2% | cis-isomer [%] [9]: 68.0% | trans-isomer [%] [9]: 32.0% | cis-isomer [%] [10]: 66.2% | trans-isomer [%] [10]: 33.8% | cis-isomer [%] [11]: 63.8% | trans-isomer [%] [11]: 36.2% | cis-isomer [%] [12]: 61.7% | trans-isomer [%] [12]: 38.3% | cis-isomer [%] [13]: 60.1% | trans-isomer [%] [13]: 39.9% | cis-isomer [%] [14]: 58.7% | trans-isomer [%] [14]: 41.3% | cis-isomer [%] [15]: 56.8% | trans-isomer [%] [15]: 43.2% | cis-isomer [%] [16]: 54.5% | trans-isomer [%] [16]: 45.5% | cis-isomer [%] [17]: 53.6% | trans-isomer [%] [17]: 46.4% | cis-isomer [%] [18]: 52.9% | trans-isomer [%] [18]: 47.1% | cis-isomer [%] [19]: 52.0% | trans-isomer [%] [19]: 48.0% | cis-isomer [%] [20]: 50.5% | trans-isomer [%] [20]: 49.5% | cis-isomer [%] [21]: 41.5% | trans-isomer [%] [21]: 58.5% | cis-isomer [%] [22]: 41.6% | trans-isomer [%] [22]: 58.4% | syn/anti ratio of the Mannich salt in solution, compared with 20.5 hours (DMSO-d6, 300.0 K, after a total of 44.5 hours): unchanged | time to thermodynamic equilibrium of syn- and anti-isomers (DMSO-d6 solution, 300 K): less than 20 h
SMILES: Cc1ccc(C(Nc2ccccn2)C(C(=O)c2ccccc2)c2ccccn2)cc1.O=C(O)C(O)c1ccccc1 (stereo not shown) [Example 27]
